{"source": "paper PMC11766267", "about": "(International Journal of Molecular Sciences, 2025)", "key": {"HCT-116": {"test_system": "HCT-116", "test": "MTT cytotoxicity assay, HCT-116", "type": "cell-based", "conditions": "Homo sapiens, 24 h treatment, mean ± SD of triplicate", "protocol": "(§1) Subsequently, 100 µL of dimethyl sulfoxide was introduced to dissolve the insoluble formazan."}, "MDA-MB-231": {"test_system": "MDA-MB-231", "test": "MTT cytotoxicity assay, MDA-MB-231", "type": "cell-based", "conditions": "Homo sapiens, 24 h treatment, mean ± SD of triplicate", "protocol": "as §1"}, "HeLa": {"test_system": "HeLa", "test": "MTT cytotoxicity assay, HeLa", "type": "cell-based", "conditions": "Homo sapiens, 24 h treatment, mean ± SD of triplicate", "protocol": "as §1"}, "MCF-7 [1]": {"test_system": "MCF-7", "test": "MTT cytotoxicity assay, MCF-7", "type": "cell-based, human", "conditions": "Homo sapiens, MCF7, 24 h, 24 h treatment, mean ± SD of triplicate", "protocol": "as §1"}, "[2]": {"test": "MTT cytotoxicity assay, normal cell line WI-38", "type": "cell-based, human", "conditions": "human, WI-38 cells (normal human lung fibroblasts), normal (non-cancer) cell line, 24 h treatment", "protocol": "as §1"}, "[3]": {"test_system": "HCT-116, MDA-MB-231, HeLa, and MCF-7", "test": "MTT cytotoxicity assay, ranges stated over several cell lines", "type": "cell-based", "conditions": "Homo sapiens", "protocol": "as §1"}, "[4]": {"biological_target": "T1, aromatase (CYP19A, EC 1.14.14.14) (Homo sapiens, UniProt P11511)", "T1 construct": "Microsomal samples were isolated from tissue using the Microsome Isolation Kit; tissue BioVision K983-100; host or cells: microsomes from an unnamed tissue", "T1 sequence (P11511 1-503)": "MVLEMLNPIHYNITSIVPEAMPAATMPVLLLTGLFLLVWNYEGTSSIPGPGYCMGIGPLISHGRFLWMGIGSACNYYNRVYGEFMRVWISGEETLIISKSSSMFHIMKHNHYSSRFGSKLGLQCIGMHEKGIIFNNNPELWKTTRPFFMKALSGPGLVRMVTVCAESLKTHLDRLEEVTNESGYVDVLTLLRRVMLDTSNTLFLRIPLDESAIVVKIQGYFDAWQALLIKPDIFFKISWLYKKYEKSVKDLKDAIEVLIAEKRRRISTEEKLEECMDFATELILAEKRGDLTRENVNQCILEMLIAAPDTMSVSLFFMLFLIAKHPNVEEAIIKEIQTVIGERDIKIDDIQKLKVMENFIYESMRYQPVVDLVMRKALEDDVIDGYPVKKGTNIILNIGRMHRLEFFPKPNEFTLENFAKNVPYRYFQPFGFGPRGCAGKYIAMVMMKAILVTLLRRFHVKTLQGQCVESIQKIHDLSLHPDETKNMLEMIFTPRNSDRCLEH", "test": "biochemical", "conditions": "individual Data 1-3", "protocol": "In vitro aromatase assay was performed using the BioVision Aromatase Activity Assay Kit (Catalog # K983-100; BioVision, Milpitas, CA, USA). Microsomal samples were isolated from tissue using the Microsome Isolation Kit (Cat. #K249; BioVision, Milpitas, CA, USA). A standard curve was established by diluting the Fluorescence Standard provided in the kit to create a 0.5 pmole/µL solution, followed by setting up a series of standards in a white 96-well plate, adjusting the total volume to 100 µL with aromatase assay buffer. For each reaction well, a 2X concentrated mix was prepared by adding 2–48 µL of the microsomal sample and 2 µL of the NADPH generating system, bringing the final volume to 50 µL with aromatase assay buffer. Background controls (no enzyme) and positive controls (with recombinant aromatase) were included. […] After a 10 min incubation at 37 °C, 30 µL of the substrate/NADP+ mixture was added to each well, and fluorescence was measured immediately in kinetic mode for 60 min at 37 °C. Finally, the change in fluorescence was calculated to determine the specific activity of aromatase using the formula provided in the kit protocol."}, "MCF-7 [5]": {"test_system": "MCF-7", "test": "In vitro anti-estrogenic activity assay, MCF-7"}, "MCF-7a": {"test_system": "MCF-7a", "test": "In vitro anti-estrogenic activity assay, MCF-7a"}, "HER2": {"biological_target": "HER2 (Homo sapiens, UniProt P04626)", "sequence (P04626 23-1255)": "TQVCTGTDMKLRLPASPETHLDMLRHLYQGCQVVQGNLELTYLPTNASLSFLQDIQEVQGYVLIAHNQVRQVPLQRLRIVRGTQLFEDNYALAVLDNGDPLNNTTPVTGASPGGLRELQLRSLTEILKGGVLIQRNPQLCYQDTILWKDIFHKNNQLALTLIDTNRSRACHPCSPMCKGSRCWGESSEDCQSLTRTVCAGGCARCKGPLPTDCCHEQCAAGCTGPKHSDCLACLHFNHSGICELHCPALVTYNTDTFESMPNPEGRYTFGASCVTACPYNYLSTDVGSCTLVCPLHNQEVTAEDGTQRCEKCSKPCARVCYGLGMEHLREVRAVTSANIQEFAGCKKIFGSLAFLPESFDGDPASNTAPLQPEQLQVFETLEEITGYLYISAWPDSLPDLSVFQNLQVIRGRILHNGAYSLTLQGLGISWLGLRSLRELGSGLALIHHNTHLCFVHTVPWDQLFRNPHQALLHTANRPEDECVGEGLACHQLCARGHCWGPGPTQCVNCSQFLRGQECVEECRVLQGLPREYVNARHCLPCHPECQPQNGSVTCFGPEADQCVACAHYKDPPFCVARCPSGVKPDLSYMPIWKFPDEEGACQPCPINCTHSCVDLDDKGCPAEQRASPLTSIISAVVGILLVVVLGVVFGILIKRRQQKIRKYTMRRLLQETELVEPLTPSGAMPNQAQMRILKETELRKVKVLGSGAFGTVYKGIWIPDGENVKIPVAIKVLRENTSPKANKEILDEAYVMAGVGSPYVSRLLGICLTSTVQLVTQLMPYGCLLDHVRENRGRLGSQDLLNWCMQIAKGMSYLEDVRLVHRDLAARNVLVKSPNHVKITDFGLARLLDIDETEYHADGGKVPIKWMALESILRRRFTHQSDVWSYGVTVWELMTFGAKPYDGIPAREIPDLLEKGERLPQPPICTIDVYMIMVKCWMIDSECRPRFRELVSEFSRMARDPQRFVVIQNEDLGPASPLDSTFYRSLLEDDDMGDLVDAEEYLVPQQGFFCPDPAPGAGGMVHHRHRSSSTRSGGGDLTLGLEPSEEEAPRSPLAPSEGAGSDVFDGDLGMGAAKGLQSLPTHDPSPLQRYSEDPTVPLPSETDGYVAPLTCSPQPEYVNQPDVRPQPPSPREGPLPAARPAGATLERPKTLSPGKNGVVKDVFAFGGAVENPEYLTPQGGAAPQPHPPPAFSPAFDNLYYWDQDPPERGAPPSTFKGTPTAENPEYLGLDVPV", "test": "In vitro protein kinase inhibition assay (ELISA kit), HER2"}, "CDK2": {"biological_target": "CDK2 (Homo sapiens, UniProt P24941)", "test": "In vitro protein kinase inhibition assay (ELISA kit), CDK2"}, "VEGFR-2": {"biological_target": "VEGFR-2 (Homo sapiens, UniProt P35968)", "sequence (P35968 20-1356)": "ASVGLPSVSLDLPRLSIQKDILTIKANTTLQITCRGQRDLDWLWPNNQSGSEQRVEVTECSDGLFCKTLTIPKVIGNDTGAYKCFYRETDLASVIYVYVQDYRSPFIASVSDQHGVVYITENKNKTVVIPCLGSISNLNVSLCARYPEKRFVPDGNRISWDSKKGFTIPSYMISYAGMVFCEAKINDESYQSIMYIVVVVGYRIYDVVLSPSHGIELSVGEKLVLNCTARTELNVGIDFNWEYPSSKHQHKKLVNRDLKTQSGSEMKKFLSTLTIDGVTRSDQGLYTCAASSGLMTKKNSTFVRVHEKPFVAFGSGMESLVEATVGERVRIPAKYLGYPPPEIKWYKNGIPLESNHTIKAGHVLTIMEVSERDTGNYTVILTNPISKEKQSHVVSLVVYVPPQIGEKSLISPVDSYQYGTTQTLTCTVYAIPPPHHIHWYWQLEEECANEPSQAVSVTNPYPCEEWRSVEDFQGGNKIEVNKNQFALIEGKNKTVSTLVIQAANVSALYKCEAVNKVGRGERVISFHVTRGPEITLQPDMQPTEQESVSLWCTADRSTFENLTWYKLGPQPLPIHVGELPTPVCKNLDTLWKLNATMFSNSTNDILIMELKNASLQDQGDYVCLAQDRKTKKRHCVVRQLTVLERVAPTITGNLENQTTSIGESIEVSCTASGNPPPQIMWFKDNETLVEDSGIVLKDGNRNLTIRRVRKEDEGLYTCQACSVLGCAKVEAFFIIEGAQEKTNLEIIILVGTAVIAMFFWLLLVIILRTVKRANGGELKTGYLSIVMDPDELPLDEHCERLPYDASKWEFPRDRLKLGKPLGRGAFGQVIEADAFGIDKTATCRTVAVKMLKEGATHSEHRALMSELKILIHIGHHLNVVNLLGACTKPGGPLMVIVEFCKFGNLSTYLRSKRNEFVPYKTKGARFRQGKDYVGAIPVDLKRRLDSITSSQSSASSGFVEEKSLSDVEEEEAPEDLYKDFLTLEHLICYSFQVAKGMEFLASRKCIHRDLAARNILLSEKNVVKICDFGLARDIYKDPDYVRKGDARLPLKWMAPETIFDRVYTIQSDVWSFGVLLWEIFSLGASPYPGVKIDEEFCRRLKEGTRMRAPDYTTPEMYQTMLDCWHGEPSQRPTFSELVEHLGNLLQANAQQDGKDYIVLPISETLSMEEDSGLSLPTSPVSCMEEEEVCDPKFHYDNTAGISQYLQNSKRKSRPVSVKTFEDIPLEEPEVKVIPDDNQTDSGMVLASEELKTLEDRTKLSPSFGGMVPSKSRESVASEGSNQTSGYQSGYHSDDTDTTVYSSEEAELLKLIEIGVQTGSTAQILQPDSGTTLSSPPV", "test": "In vitro protein kinase inhibition assay (ELISA kit), VEGFR-2", "conditions": "individual Data 1-3"}, "[6]": {"conditions": "cell count relative to the control (17β-E2)"}}, "note": "“And” between values parts separate entries of the source, which are not always exact repeats. Equal entries are not always repeated. Where two headings read alike, the source gives them in different places.", "data": [{"compound": "O=C(/C=C/c1ccc(O)cc1)c1ccccc1", "note": "[Compound 4b, (E)-3-(4-Hydroxyphenyl)-1-phenylprop-2-en-1-one]", "values": [{"measurement": "IC50", "setting": "HCT-116", "result": "6.59 ± 0.3", "unit": "µM"}, {"measurement": "IC50", "setting": "MDA-MB-231", "result": "4.93 ± 0.3", "unit": "µM"}, {"measurement": "IC50", "setting": "HeLa", "result": "13.1 ± 1.1", "unit": "µM"}, {"measurement": "IC50", "setting": "MCF-7 [1]", "result": "2.08 ± 0.1", "unit": "µM"}, {"measurement": "IC50 at 24 h", "setting": "[2]", "result": "54.6 ± 3.1", "unit": "µM"}, {"measurement": "IC50", "setting": "[3]; HCT-116, MDA-MB-231, HeLa, MCF-7, range, read-out: IC50 values, range over the cancer cell lines tested", "result": "2.08 to 34.9", "unit": "µM"}, {"measurement": "IC50", "setting": "[3]; HCT-116 and HeLa, range over the compounds named, read-out: IC50 values, range against HCT-116 and HeLa", "result": "6.59 to 22.6", "unit": "µM"}, {"measurement": "IC50", "setting": "[3]; MDA-MB-231 and MCF-7, range over the compounds named, read-out: IC50 values, range against MDA-MB-231 and MCF-7", "result": "2.08 to 13.6", "unit": "µM"}, {"measurement": "Inhibition (%) Aromatase", "setting": "[4]; 0.01 µM", "result": "5.7% and 3.5% and 7.9%"}, {"measurement": "Inhibition (%) Aromatase", "setting": "[4]; 0.1 µM", "result": "9.9% and 14.2%"}, {"measurement": "Inhibition (%) Aromatase", "setting": "[4]; 1 µM", "result": "44% and 41.7%"}, {"measurement": "Inhibition (%) Aromatase", "setting": "[4]; 10 µM", "result": "72.5% and 78.6%"}, {"measurement": "Inhibition (%) Aromatase", "setting": "[4]; 100 µM", "result": "87% and 93.8%"}, {"measurement": "inhibition at 0.1 µM", "setting": "[4]; read-out: Inhibition (%) Aromatase, 0.1 µM", "result": 11, "unit": "%"}, {"measurement": "inhibition at 1 µM", "setting": "[4]; read-out: Inhibition (%) Aromatase, 1 µM", "result": 47.8, "unit": "%"}, {"measurement": "inhibition at 10 µM", "setting": "[4]; read-out: Inhibition (%) Aromatase, 10 µM", "result": 75, "unit": "%"}, {"measurement": "inhibition at 100 µM", "setting": "[4]; read-out: Inhibition (%) Aromatase, 100 µM", "result": 89, "unit": "%"}, {"measurement": "Cell Proliferation MCF-7 %", "setting": "MCF-7 [5]; [6]", "result": 34, "unit": "%"}, {"measurement": "Cell Proliferation MCF-7 Cell Count", "setting": "MCF-7 [5]; mean ± SD of triplicate", "result": "6213 ± 221"}, {"measurement": "Reduction of growth/cell count (inhibition) in MCF-7", "setting": "MCF-7 [5]; relative to control", "result": 66, "unit": "%"}, {"measurement": "Cell Proliferation MCF-7a %", "setting": "MCF-7a; [6]", "result": 99, "unit": "%"}, {"measurement": "Cell Proliferation MCF-7a Cell Count", "setting": "MCF-7a; mean ± SD of triplicate", "result": "20,669 ± 597"}, {"measurement": "IC50", "setting": "HER2", "result": "0.387 ± 0.015", "unit": "µM"}, {"measurement": "Inhibition (%) Her2", "setting": "HER2; 0.01 µM, individual Data 1-3", "result": "8.76% and 10.34%"}, {"measurement": "Inhibition (%) Her2", "setting": "HER2; 0.1 µM, individual Data 1-3", "result": "36.2% and 38.76%"}, {"measurement": "Inhibition (%) Her2", "setting": "HER2; 1 µM, individual Data 1-3", "result": "71.3% and 70.87%"}, {"measurement": "Inhibition (%) Her2", "setting": "HER2; 10 µM, individual Data 1-3", "result": "80.35% and 82.9%"}, {"measurement": "Inhibition (%) Her2", "setting": "HER2; 100 µM, individual Data 1-3", "result": "93% and 95.67%"}, {"measurement": "inhibition at 0.01 µM", "setting": "HER2; read-out: Inhibition (%) Her2, 0.01 µM, individual Data 1-3", "result": 9.25, "unit": "%"}, {"measurement": "inhibition at 0.1 µM", "setting": "HER2; read-out: Inhibition (%) Her2, 0.1 µM, individual Data 1-3", "result": 37.7, "unit": "%"}, {"measurement": "inhibition at 1 µM", "setting": "HER2; read-out: Inhibition (%) Her2, 1 µM, individual Data 1-3", "result": 73, "unit": "%"}, {"measurement": "inhibition at 10 µM", "setting": "HER2; read-out: Inhibition (%) Her2, 10 µM, individual Data 1-3", "result": 81.6, "unit": "%"}, {"measurement": "inhibition at 100 µM", "setting": "HER2; read-out: Inhibition (%) Her2, 100 µM, individual Data 1-3", "result": 94.2, "unit": "%"}, {"measurement": "IC50", "setting": "CDK2", "result": "0.288 ± 0.009", "unit": "µM"}, {"measurement": "Inhibition (%) CDK2", "setting": "CDK2; 0.01 µM, individual Data 1-3", "result": "18.7% and 19.5%"}, {"measurement": "Inhibition (%) CDK2", "setting": "CDK2; 0.1 µM, individual Data 1-3", "result": "38.2% and 39.3%"}, {"measurement": "Inhibition (%) CDK2", "setting": "CDK2; 1 µM, individual Data 1-3", "result": "66.1% and 65.3%"}, {"measurement": "Inhibition (%) CDK2", "setting": "CDK2; 10 µM, individual Data 1-3", "result": "84.9% and 86%"}, {"measurement": "Inhibition (%) CDK2", "setting": "CDK2; 100 µM, individual Data 1-3", "result": 94.8, "unit": "%"}, {"measurement": "inhibition at 100 µM", "setting": "CDK2; read-out: Inhibition (%) CDK2", "result": 93.8, "unit": "%"}, {"measurement": "inhibition at 0.01 µM", "setting": "CDK2; read-out: Inhibition (%) CDK2, 0.01 µM, individual Data 1-3", "result": 19.1, "unit": "%"}, {"measurement": "inhibition at 0.1 µM", "setting": "CDK2; read-out: Inhibition (%) CDK2, 0.1 µM, individual Data 1-3", "result": 38.5, "unit": "%"}, {"measurement": "inhibition at 1 µM", "setting": "CDK2; read-out: Inhibition (%) CDK2, 1 µM, individual Data 1-3", "result": 66.9, "unit": "%"}, {"measurement": "inhibition at 10 µM", "setting": "CDK2; read-out: Inhibition (%) CDK2, 10 µM, individual Data 1-3", "result": 85.4, "unit": "%"}, {"measurement": "inhibition at 100 µM", "setting": "CDK2; read-out: Inhibition (%) CDK2, 100 µM, individual Data 1-3", "result": 94.1, "unit": "%"}, {"measurement": "Inhibition (%) VEGFR2", "setting": "VEGFR-2; 0.01 µM", "result": "19.2% and 19.7%"}, {"measurement": "Inhibition (%) VEGFR2", "setting": "VEGFR-2; 0.1 µM", "result": "48.2% and 48.6%"}, {"measurement": "Inhibition (%) VEGFR2", "setting": "VEGFR-2; 1 µM", "result": 73.4, "unit": "%"}, {"measurement": "Inhibition (%) VEGFR2", "setting": "VEGFR-2; 10 µM", "result": "89% and 90%"}, {"measurement": "Inhibition (%) VEGFR2", "setting": "VEGFR-2; 100 µM", "result": 95.9, "unit": "%"}, {"measurement": "inhibition at 0.01 µM", "setting": "VEGFR-2; read-out: Inhibition (%) VEGFR2, 0.01 µM", "result": 19.4, "unit": "%"}, {"measurement": "inhibition at 0.1 µM", "setting": "VEGFR-2; read-out: Inhibition (%) VEGFR2, 0.1 µM", "result": 48.3, "unit": "%"}, {"measurement": "inhibition at 1 µM", "setting": "VEGFR-2; read-out: Inhibition (%) VEGFR2, 1 µM", "result": 73.8, "unit": "%"}, {"measurement": "inhibition at 10 µM", "setting": "VEGFR-2; read-out: Inhibition (%) VEGFR2, 10 µM", "result": 89.5, "unit": "%"}, {"measurement": "inhibition at 100 µM", "setting": "VEGFR-2; read-out: Inhibition (%) VEGFR2, 100 µM", "result": 96.1, "unit": "%"}]}]}
